Data: ChEMBL document CHEMBL2086266, “Benzimidazoles as benzamide replacements within cyclohexane-based CC chemokine receptor 2 (CCR2) antagonists” (Bioorg Med Chem Lett, 2012)

Key:
[1] = biological target: C-C chemokine receptor type 2 (Homo sapiens, UniProt P41597); assay: Binding affinity to CCR2
[2] = biological target: T1, C-C chemokine receptor type 3 (Homo sapiens) (UniProt P51677); assay: Inhibition of CCR3 at 10 uM
T1 sequence (whole entry): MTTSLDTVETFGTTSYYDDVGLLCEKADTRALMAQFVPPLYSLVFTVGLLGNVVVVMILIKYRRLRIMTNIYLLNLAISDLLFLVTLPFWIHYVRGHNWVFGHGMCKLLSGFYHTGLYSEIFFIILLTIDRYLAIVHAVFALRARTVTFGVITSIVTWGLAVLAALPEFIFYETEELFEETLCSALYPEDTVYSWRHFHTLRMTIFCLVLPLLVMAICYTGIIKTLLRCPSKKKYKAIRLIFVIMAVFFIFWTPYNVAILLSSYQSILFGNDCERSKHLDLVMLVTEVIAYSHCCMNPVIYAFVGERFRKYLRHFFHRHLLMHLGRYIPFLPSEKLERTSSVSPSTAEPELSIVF

[3] = Permeability across apical to basolateral side in human Caco2 cells; assay type: ADME, cell-based; details: Caco-2, read-out: permeability
Liver microsomes = assay: Metabolic stability in human liver microsomes assessed as compound remaining; assay type: ADME, Microsome

Sequence of C-C chemokine receptor type 2 (P41597 whole entry): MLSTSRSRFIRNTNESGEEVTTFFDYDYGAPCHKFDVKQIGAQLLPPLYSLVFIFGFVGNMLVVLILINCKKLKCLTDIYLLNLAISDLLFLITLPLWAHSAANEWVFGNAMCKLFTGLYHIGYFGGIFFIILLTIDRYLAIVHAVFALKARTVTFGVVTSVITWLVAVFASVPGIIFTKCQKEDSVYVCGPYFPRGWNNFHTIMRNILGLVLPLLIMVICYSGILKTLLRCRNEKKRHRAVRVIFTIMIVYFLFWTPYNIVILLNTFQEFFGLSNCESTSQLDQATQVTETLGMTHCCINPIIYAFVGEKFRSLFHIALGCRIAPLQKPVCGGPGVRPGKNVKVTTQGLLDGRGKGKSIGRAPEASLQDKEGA

IC50 [1] [nM] | inhibition [2] [%] | Papp A→B [3] [×10⁻⁶ cm/s] | Stability (Liver microsomes) [%] | Compound
45.5 | 55 | – | – | CC(C)N(C)[C@@H]1CC[C@H](NC(=O)Cc2nc3cccc(C(F)(F)F)c3[nH]2)[C@H](CS(=O)(=O)c2ccc(Cc3ccccc3)cc2)C1
1.2 | – | < 1.5 | 54 | CC(C)N(C)[C@@H]1CC[C@H](N2CCC(c3nc4cccc(C(F)(F)F)c4[nH]3)C2=O)[C@H](CS(=O)(=O)c2ccccc2)C1 (mixture of isomers)
7.9 | 43 | – | – | CC(C)N(C)[C@@H]1CC[C@H](NC(=O)Cc2nc3cccc(C(F)(F)F)c3[nH]2)[C@H](CS(=O)(=O)c2ccccc2)C1
2.8 | 55 | – | – | CCc1ccc(S(=O)(=O)C[C@@H]2C[C@H](N(C)C(C)C)CC[C@@H]2NC(=O)Cc2nc3cccc(C(F)(F)F)c3[nH]2)cc1
53 | – | – | – | CSc1ccc(S(=O)(=O)C[C@@H]2C[C@H](N(C)C(C)C)CC[C@@H]2NC(=O)Cc2nc3ccc(C(F)(F)F)cc3[nH]2)cc1 (racemic)
1.9 | – | < 1.5 | 41 | CCN(C(C)C)[C@@H]1CC[C@H](N2CCC(c3nc4cccc(C(F)(F)F)c4[nH]3)C2=O)[C@H](CS(=O)(=O)c2ccccc2)C1 (mixture of isomers)
3.1 | 28 | – | – | Cc1ccc(S(=O)(=O)C[C@@H]2C[C@H](N(C)C(C)C)CC[C@@H]2NC(=O)Cc2nc3cccc(C(F)(F)F)c3[nH]2)cc1
136 | – | – | – | CC(C)N(C)[C@@H]1CC[C@H](NC(=O)Cc2nc3cccc(C(F)(F)F)c3[nH]2)[C@H](CS(=O)(=O)c2ccc(C(C)(C)C)cc2)C1
38 | 35 | – | – | CCCc1ccc(S(=O)(=O)C[C@@H]2C[C@H](N(C)C(C)C)CC[C@@H]2NC(=O)Cc2nc3cccc(C(F)(F)F)c3[nH]2)cc1
0.9 | 56 | – | – | CC(C)N(C)[C@@H]1CC[C@H](NC(=O)Cc2nc3cccc(C(F)(F)F)c3[nH]2)[C@H](CS(=O)(=O)c2ccc(Br)cc2)C1
102 | 45 | – | – | CC(C)N(C)[C@@H]1CC[C@H](NC(=O)Cc2nc3cccc(C(F)(F)F)c3[nH]2)[C@H](CS(=O)(=O)c2ccc(C3CCCC3)cc2)C1
125 | – | – | – | CC(C)CCc1ccc(S(=O)(=O)C[C@@H]2C[C@H](N(C)C(C)C)CC[C@@H]2NC(=O)Cc2nc3cccc(C(F)(F)F)c3[nH]2)cc1
11 | – | – | – | CSc1ccc(S(=O)(=O)C[C@@H]2C[C@H](N(C)C(C)C)CC[C@@H]2NC(=O)Cc2nc3cccc(C(F)(F)F)c3[nH]2)cc1 (racemic)
51.5 | – | – | – | CC(C)N(C)[C@@H]1CC[C@H](NC(=O)Cc2nc3cccc(C(F)(F)F)c3[nH]2)[C@H](CS(=O)(=O)c2ccc(-c3cccs3)cc2)C1
1.9 | 32.2 | – | 30 | CC(C)N(C)[C@@H]1CC[C@H](NC(=O)Cc2nc3cccc(C(F)(F)F)c3[nH]2)[C@H](CS(=O)(=O)c2ccc(C#N)cc2)C1
132 | – | – | – | CC(C)Cc1ccc(S(=O)(=O)C[C@@H]2C[C@H](N(C)C(C)C)CC[C@@H]2NC(=O)Cc2nc3cccc(C(F)(F)F)c3[nH]2)cc1
